Assays:
Format in all cases: cell-based
Aeromonas hydrophila = experiment: MIC against Gram-negative bacteria: Aeromonas hydrophila; details: 5×10^5 CFU/mL
Outline: (§1)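 MIC, the lowest recombinant protein concentration giving no bacterial growth, found by two-fold serial dilution of human EGF-domain proteins in triplicate. Inoculum 5×10^5 CFU/mL in LB from cultures at McFarland 0.5; plates incubated at 37° C, 175 rpm shaking.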

Pseudomonas aeruginosa = experiment: MIC against Gram-negative bacteria: Pseudomonas aeruginosa; details: 5×10^5 CFU/mL
Outline: as §1

Citrobacter diversus = experiment: MIC against Gram-negative bacteria: Citrobacter diversus; details: 5×10^5 CFU/mL
Outline: as §1

Moraxella catarrhalis = experiment: MIC against Gram-negative bacteria: Moraxella catarrhalis; details: 5×10^5 CFU/mL
Outline: as §1

Serratia marcescens = experiment: MIC against Gram-negative bacteria: Serratia marcescens; details: 5×10^5 CFU/mL
Outline: as §1

E. coli DH5α = experiment: Antibacterial activity: MIC and growth curve against E. coli DH5α in 96-well plate; details: minimal inhibitory concentration against E. coli DH5α; 96-well plate, 5×10^5 CFU/mL, 37° C., judged after 8 h
Outline: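 Log-phase bacteria (OD600 ~0.5) resuspended in LB at 5×10^5 CFU/mL, exposed to recombinant protein at 50, 25, 12.5 μg/mL final in triplicate, 37 °C shaking at 175 rpm. OD600 read every 30 min; MIC is lowest concentration showing no growth.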

Klebsiella pneumonia = experiment: MIC against Gram-negative bacteria: Klebsiella pneumonia; details: 5×10^5 CFU/mL
Outline: as §1

Proteus mirabilis = experiment: MIC against Gram-negative bacteria: Proteus mirabilis; details: 5×10^5 CFU/mL
Outline: as §1

E. coli BL21 = experiment: MIC against Gram-negative bacteria: E. coli BL21; details: 5×10^5 CFU/mL
Outline: as §1

Proteus vulgaris = experiment: MIC against Gram-negative bacteria: Proteus vulgaris; details: 5×10^5 CFU/mL
Outline: as §1

Enterobacter cloacae = experiment: MIC against Gram-negative bacteria: Enterobacter cloacae; details: 5×10^5 CFU/mL
Outline: as §1

[1] = Aeromonas hydrophila, 10 h cultivation at 37° C.
[2] = Pseudomonas aeruginosa, 10 h cultivation at 37° C.
[3] = Citrobacter diversus, 10 h cultivation at 37° C.
[4] = Moraxella catarrhalis, 10 h cultivation at 37° C.
[5] = Serratia marcescens, 10 h cultivation at 37° C.
[6] = Klebsiella pneumonia, 10 h cultivation at 37° C.
[7] = Proteus mirabilis, 10 h cultivation at 37° C.
[8] = Proteus vulgaris, 10 h cultivation at 37° C.
[9] = Enterobacter cloacae, 10 h cultivation at 37° C.
[10] = 10 h cultivation at 37° C., two-fold serial dilution

## PRT836 (FGHDCSLTCDDCRNGGTCLLGLDGCDCPEGWTGLICN; listed as Homo sapiens)
Aeromonas hydrophila; A. hydrophila, 10 h cultivation at 37° C.
  MIC (μg/mL) A. hydrophila: 12.5 µg/mL
Pseudomonas aeruginosa; P. aeruginosa, 10 h cultivation at 37° C.
  MIC (μg/mL) P. aeruginosa: 50 µg/mL
Citrobacter diversus; C. diversus, 10 h cultivation at 37° C.
  MIC (μg/mL) C. diversus: 25 µg/mL
Moraxella catarrhalis; M. catarrhalis, 10 h cultivation at 37° C.
  MIC (μg/mL) M. catarrhalis: 12.5 µg/mL
Serratia marcescens; S. marcescens, 10 h cultivation at 37° C.
  MIC (μg/mL) S. marcescens: 12.5 µg/mL
E. coli DH5α
  MIC: 50 µg/mL
Klebsiella pneumonia; K. pneumonia, 10 h cultivation at 37° C.
  MIC (μg/mL) K. pneumonia: 12.5 µg/mL
Proteus mirabilis; P. mirabilis, 10 h cultivation at 37° C.
  MIC (μg/mL) P. mirabilis: 25 µg/mL
E. coli BL21; 10 h cultivation at 37° C.
  MIC (μg/mL) E. coli BL21: 12.5 µg/mL
Proteus vulgaris; P. vulgaris, 10 h cultivation at 37° C.
  MIC (μg/mL) P. vulgaris: 25 µg/mL
Enterobacter cloacae; E. cloacae, 10 h cultivation at 37° C.
  MIC (μg/mL) E. cloacae: 50 µg/mL

## PRT1379 (GWPSCPGDCQGRGRCVQGVCVCRAGFSGPDC; listed as Homo sapiens)
Aeromonas hydrophila; [1]
  MIC against A. hydrophila: 25 µg/mL
Pseudomonas aeruginosa; [2]
  MIC against P. aeruginosa: 50 µg/mL
Citrobacter diversus; [3]
  MIC against C. diversus: 12.5 µg/mL
Moraxella catarrhalis; [4]
  MIC against M. catarrhalis: 25 µg/mL
Serratia marcescens; [5]
  MIC against S. marcescens: 12.5 µg/mL
E. coli DH5α
  MIC: 50 µg/mL
Klebsiella pneumonia; [6]
  MIC against K. pneumonia: 12.5 µg/mL
Proteus mirabilis; [7]
  MIC against P. mirabilis: 50 µg/mL
E. coli BL21; 10 h cultivation at 37° C.
  MIC against E. coli BL21: 12.5 µg/mL
Proteus vulgaris; [8]
  MIC against P. vulgaris: 25 µg/mL
Enterobacter cloacae; [9]
  MIC against E. cloacae: 50 µg/mL

## PRT1167 (NINDCESNPCRNGGTCIDGVNSYKCICSDGWEGAYCE; listed as Homo sapiens)
Aeromonas hydrophila; [10]
  MIC A. hydrophila: 25 µg/mL
Pseudomonas aeruginosa; [10]
  MIC P. aeruginosa: 12.5 µg/mL
Citrobacter diversus; [10]
  MIC C. diversus: 12.5 µg/mL
Moraxella catarrhalis; [10]
  MIC M. catarrhalis: 25 µg/mL
Serratia marcescens; [10]
  MIC S. marcescens: 12.5 µg/mL
E. coli DH5α
  MIC: 50 µg/mL
Klebsiella pneumonia; [10]
  MIC K. pneumonia: 25 µg/mL
Proteus mirabilis; [10]
  MIC P. mirabilis: 50 µg/mL
E. coli BL21; [10]
  MIC E. coli BL21: 25 µg/mL
Proteus vulgaris; [10]
  MIC P. vulgaris: 25 µg/mL
Enterobacter cloacae; [10]
  MIC E. cloacae: 50 µg/mL

## PRT594 (CACNNNIDVTDPESCSRVTGECLRCLHNTQGANCQLCKPGHYGSALNQTCRR; listed as Homo sapiens)
Aeromonas hydrophila; 96-well plate, 37° C., 10 h
  MIC A. hydrophila: 12.5 µg/mL
Pseudomonas aeruginosa; 96-well plate, 37° C., 10 h
  MIC P. aeruginosa: 50 µg/mL
Citrobacter diversus; 96-well plate, 37° C., 10 h
  MIC C. diversus: 50 µg/mL
Moraxella catarrhalis; 96-well plate, 37° C., 10 h
  MIC M. catarrhalis: 12.5 µg/mL
Serratia marcescens; 96-well plate, 37° C., 10 h
  MIC S. marcescens: 50 µg/mL
E. coli DH5α
  MIC: 12.5 µg/mL
Klebsiella pneumonia; 96-well plate, 37° C., 10 h
  MIC K. pneumonia: 12.5 µg/mL
Proteus mirabilis; 96-well plate, 37° C., 10 h
  MIC P. mirabilis: 50 µg/mL
E. coli BL21; 96-well plate, 37° C., 10 h
  MIC E. coli BL21: 25 µg/mL
Proteus vulgaris; 96-well plate, 37° C., 10 h
  MIC P. vulgaris: 12.5 µg/mL
Enterobacter cloacae; 96-well plate, 37° C., 10 h
  MIC E. cloacae: 50 µg/mL

## PRT1438 (PVKSCSEPRCFNGGTCQQALYFSDFVCQCPEGFAGKCCE; listed as Homo sapiens)
Aeromonas hydrophila; [1]
  MIC against A. hydrophila: 25 µg/mL
Pseudomonas aeruginosa; [2]
  MIC against P. aeruginosa: 50 µg/mL
Citrobacter diversus; [3]
  MIC against C. diversus: 50 µg/mL
Moraxella catarrhalis; [4]
  MIC against M. catarrhalis: 12.5 µg/mL
Serratia marcescens; [5]
  MIC against S. marcescens: 12.5 µg/mL
E. coli DH5α
  MIC: 12.5 µg/mL
Klebsiella pneumonia; [6]
  MIC against K. pneumonia: 25 µg/mL
Proteus mirabilis; [7]
  MIC against P. mirabilis: 50 µg/mL
E. coli BL21; 10 h cultivation at 37° C.
  MIC against E. coli BL21: 25 µg/mL
Proteus vulgaris; [8]
  MIC against P. vulgaris: 25 µg/mL
Enterobacter cloacae; [9]
  MIC against E. cloacae: 12.5 µg/mL

## PRT82 (CDCYPTGSLSRVCDPEDGQCPCKPGVIGRQCDRCDNPFAEVTTNGCEV; listed as Homo sapiens)
Aeromonas hydrophila; Aeromonas hydrophila, 96-well plate, 37° C., 10 h
  MIC (μg/mL) A. hydrophila: 12.5 µg/mL
Pseudomonas aeruginosa; Pseudomonas aeruginosa, 96-well plate, 37° C., 10 h
  MIC (μg/mL) P. aeruginosa: 25 µg/mL
Citrobacter diversus; Citrobacter diversus, 96-well plate, 37° C., 10 h
  MIC (μg/mL) C. diversus: 50 µg/mL
Moraxella catarrhalis; Moraxella catarrhalis, 96-well plate, 37° C., 10 h
  MIC (μg/mL) M. catarrhalis: 100 µg/mL
Serratia marcescens; Serratia marcescens, 96-well plate, 37° C., 10 h
  MIC (μg/mL) S. marcescens: 12.5 µg/mL
E. coli DH5α
  MIC: 25 µg/mL
Klebsiella pneumonia; Klebsiella pneumonia, 96-well plate, 37° C., 10 h
  MIC (μg/mL) K. pneumonia: 50 µg/mL
Proteus mirabilis; Proteus mirabilis, 96-well plate, 37° C., 10 h
  MIC (μg/mL) P. mirabilis: 12.5 µg/mL
E. coli BL21; 96-well plate, 37° C., 10 h
  MIC (μg/mL) E. coli BL21: 12.5 µg/mL
Proteus vulgaris; Proteus vulgaris, 96-well plate, 37° C., 10 h
  MIC (μg/mL) P. vulgaris: 12.5 µg/mL
Enterobacter cloacae; Enterobacter cloacae, 96-well plate, 37° C., 10 h
  MIC (μg/mL) E. cloacae: 25 µg/mL

— patent US9833497B2, “Human originated EGF domain proteins and use of the same” (CHENGDU SOURCEBIO LIMITED-LIABILITY COMPANY, priority 2013, dated 2017)
